# According to patent US7396837B2, “Antitumoral analogs of lamellarins” (Pharma Mar, S.A.U., priority 2002, dated 2008):
# Tests used:
# Assay type in all cases: cell-based
# [1] = tested on: K-562; assay: SRB colorimetric cell growth inhibition assay, K-562; conditions: Homo sapiens, K562, K-562; for GI50: GI=growth inhibition, read-out: GI50 K-562; for CC50: LC=cell killing (cytotoxic effect), read-out: LC50 K-562; for IC (TGI): TGI=total growth inhibition (cytostatic effect), read-out: TGI K-562
# Method in brief: (§1)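 In this cytotoxicity screen, compound stays in contact with the cultured human cancer cells without washout; sulforhodamine B binding gives the measure of cell number, and endpoints separate growth inhibition from cytostasis (TGI) and killing (LC).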
# [2] = tested on: HT-29; assay: SRB colorimetric cell growth inhibition assay, HT-29; conditions: Homo sapiens, HT-29, HT-29; for GI50: GI=growth inhibition, read-out: GI50 HT-29; for CC50: LC=cell killing (cytotoxic effect), read-out: LC50 HT-29; for IC (TGI): TGI=total growth inhibition (cytostatic effect), read-out: TGI HT-29
# Method in brief: as §1
# [3] = tested on: LNCaP; assay: SRB colorimetric cell growth inhibition assay, LNCaP; conditions: Homo sapiens, LNCaP, LN-caP; for GI50: GI=growth inhibition, read-out: GI50 LN-caP; for CC50: LC=cell killing (cytotoxic effect), read-out: LC50 LN-caP; for IC (TGI): TGI=total growth inhibition (cytostatic effect), read-out: TGI LN-caP
# Method in brief: as §1
# [4] = tested on: HeLa; assay: SRB colorimetric cell growth inhibition assay, HeLa; conditions: Homo sapiens, HeLa; for GI50: GI=growth inhibition, read-out: GI50 HELA; for CC50: LC=cell killing (cytotoxic effect), read-out: LC50 HELA; for IC (TGI): TGI=total growth inhibition (cytostatic effect), read-out: TGI HELA
# Method in brief: as §1
# [5] = tested on: IGROV-ET; assay: SRB colorimetric cell growth inhibition assay, IGROV-ET (ET-743 resistant); conditions: Homo sapiens, IGROV-ET; for GI50: GI=growth inhibition, read-out: GI50 IGROV-ET; for CC50: LC=cell killing (cytotoxic effect), read-out: LC50 IGROV-ET; for IC (TGI): TGI=total growth inhibition (cytostatic effect), read-out: TGI IGROV-ET
# Method in brief: as §1
# [6] = tested on: DU-145; assay: SRB colorimetric cell growth inhibition assay, DU-145; conditions: Homo sapiens, DU-145, DU-145; for GI50: GI=growth inhibition, read-out: GI50 DU-145; for CC50: LC=cell killing (cytotoxic effect), read-out: LC50 DU-145; for IC (TGI): TGI=total growth inhibition (cytostatic effect), read-out: TGI DU-145
# Method in brief: as §1
# [7] = tested on: PANC-1; assay: SRB colorimetric cell growth inhibition assay, PANC-1; conditions: Homo sapiens, PANC-1, PANC-1; for GI50: GI=growth inhibition, read-out: GI50 PANC-1; for CC50: LC=cell killing (cytotoxic effect), read-out: LC50 PANC-1; for IC (TGI): TGI=total growth inhibition (cytostatic effect), read-out: TGI PANC-1
# Method in brief: as §1
# [8] = tested on: IGROV; assay: SRB colorimetric cell growth inhibition assay, IGROV; conditions: Homo sapiens, IGROV; for GI50: GI=growth inhibition, read-out: GI50 IGROV; for CC50: LC=cell killing (cytotoxic effect), read-out: LC50 IGROV; for IC (TGI): TGI=total growth inhibition (cytostatic effect), read-out: TGI IGROV
# Method in brief: as §1
# [9] = tested on: A-549; assay: SRB colorimetric cell growth inhibition assay, A-549; conditions: Homo sapiens, A549, A-549; for GI50: GI=growth inhibition, read-out: GI50 A-549; for CC50: LC=cell killing (cytotoxic effect), read-out: LC50 A-549; for IC (TGI): TGI=total growth inhibition (cytostatic effect), read-out: TGI A-549
# Method in brief: as §1
# [10] = tested on: SK-MEL-28; assay: SRB colorimetric cell growth inhibition assay, SK-MEL-28; conditions: Homo sapiens, SK-MEL-28, MEL-28; for GI50: GI=growth inhibition, read-out: GI50 MEL-28; for CC50: LC=cell killing (cytotoxic effect), read-out: LC50 MEL-28; for IC (TGI): TGI=total growth inhibition (cytostatic effect), read-out: TGI MEL-28
# Method in brief: as §1
# [11] = tested on: LoVo; assay: SRB colorimetric cell growth inhibition assay, LoVo; conditions: Homo sapiens, LoVo; for GI50: GI=growth inhibition, read-out: GI50 LOVO; for CC50: LC=cell killing (cytotoxic effect), read-out: LC50 LOVO; for IC (TGI): TGI=total growth inhibition (cytostatic effect), read-out: TGI LOVO
# Method in brief: as §1
# [12] = tested on: SK-BR-3; assay: SRB colorimetric cell growth inhibition assay, SK-BR-3; conditions: Homo sapiens, SK-BR-3, SK-BR-3; for GI50: GI=growth inhibition, read-out: GI50 SK-BR-3; for CC50: LC=cell killing (cytotoxic effect), read-out: LC50 SK-BR-3; for IC (TGI): TGI=total growth inhibition (cytostatic effect), read-out: TGI SK-BR-3
# Method in brief: as §1
# [13] = tested on: HeLa-APL; assay: SRB colorimetric cell growth inhibition assay, HeLa-APL (aplidine resistant); conditions: Homo sapiens, HELA-APL; for GI50: GI=growth inhibition, read-out: GI50 HELA-APL; for CC50: LC=cell killing (cytotoxic effect), read-out: LC50 HELA-APL; for IC (TGI): TGI=total growth inhibition (cytostatic effect), read-out: TGI HELA-APL
# Method in brief: as §1
# [14] = tested on: LoVo-Dox; assay: SRB colorimetric cell growth inhibition assay, LoVo-Dox (MDR); conditions: Homo sapiens, LOVO-DOX; for GI50: GI=growth inhibition, read-out: GI50 LOVO-DOX; for CC50: LC=cell killing (cytotoxic effect), read-out: LC50 LOVO-DOX; for IC (TGI): TGI=total growth inhibition (cytostatic effect), read-out: TGI LOVO-DOX
# Method in brief: as §1
compound,measurement,setting,value
COc1cc(-c2c3c4cc(OC)c(OC(C)C)cc4oc(=O)c3n3ccc4c([N+](=O)[O-])cccc4c23)ccc1OC(C)C [Compound 54],GI50,[1],3.76 µM
same,CC50,[1],17.2 µM
same,IC (TGI),[1],14.2 µM
same,GI50,[2],1.52 µM
same,CC50,[2],17.2 µM
same,IC (TGI),[2],17.2 µM
same,GI50,[3],1.71 µM
same,CC50,[3],11.1 µM
same,IC (TGI),[3],4.34 µM
same,GI50,[4],0.616 µM
same,CC50,[4],17.2 µM
same,IC (TGI),[4],2.71 µM
same,GI50,[5],6.64 µM
same,CC50,[5],17.2 µM
same,IC (TGI),[5],17.2 µM
same,GI50,[6],2.88 µM
same,CC50,[6],17.2 µM
same,IC (TGI),[6],7.16 µM
same,GI50,[7],0.711 µM
same,CC50,[7],17.2 µM
same,IC (TGI),[7],2.59 µM
same,GI50,[8],0.884 µM
same,CC50,[8],13.3 µM
same,IC (TGI),[8],4.02 µM
same,GI50,[9],2.85 µM
same,CC50,[9],17.2 µM
same,IC (TGI),[9],15.1 µM
same,GI50,[10],1.53 µM
same,CC50,[10],17.2 µM
same,IC (TGI),[10],5.7 µM
same,GI50,[11],3.4 µM
same,CC50,[11],17.2 µM
same,IC (TGI),[11],8.94 µM
same,GI50,[12],1.05 µM
same,CC50,[12],17.2 µM
same,IC (TGI),[12],4.31 µM
same,GI50,[13],3.83 µM
same,CC50,[13],17.2 µM
same,IC (TGI),[13],17.2 µM
same,GI50,[14],12.5 µM
same,CC50,[14],17.2 µM
same,IC (TGI),[14],17.2 µM
COc1cc(-c2c3n(c4c(=O)oc5cc(N)c(OC)cc5c24)CCc2cc(OC)c(OC)cc2-3)ccc1N [Compound 57],GI50,[1],2.69 µM
same,CC50,[1],19.5 µM
same,IC (TGI),[1],19.5 µM
same,GI50,[2],3.49 µM
same,CC50,[2],19.5 µM
same,IC (TGI),[2],19.5 µM
same,GI50,[3],2.16 µM
same,CC50,[3],13.9 µM
same,IC (TGI),[3],5.47 µM
same,GI50,[4],0.685 µM
same,CC50,[4],19.5 µM
same,IC (TGI),[4],5.67 µM
same,GI50,[5],0.89 µM
same,CC50,[5],19.5 µM
same,IC (TGI),[5],6.43 µM
same,GI50,[6],3.89 µM
same,CC50,[6],19.5 µM
same,IC (TGI),[6],12.2 µM
same,GI50,[7],0.611 µM
same,CC50,[7],19.5 µM
same,IC (TGI),[7],9.7 µM
same,GI50,[8],0.847 µM
same,CC50,[8],19.5 µM
same,IC (TGI),[8],5.88 µM
same,GI50,[9],1.29 µM
same,CC50,[9],19.5 µM
same,IC (TGI),[9],19.5 µM
same,GI50,[10],1.68 µM
same,CC50,[10],19.5 µM
same,IC (TGI),[10],12.6 µM
same,GI50,[11],0.717 µM
same,CC50,[11],19.5 µM
same,IC (TGI),[11],5.3 µM
same,GI50,[12],0.317 µM
same,CC50,[12],19.5 µM
same,IC (TGI),[12],5.24 µM
same,GI50,[13],3.68 µM
same,CC50,[13],19.5 µM
same,IC (TGI),[13],11 µM
same,GI50,[14],0.828 µM
same,CC50,[14],19.5 µM
same,IC (TGI),[14],6.91 µM
